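Growth conditions: 96-well plates. Treatment: test compound, 48 hours, 5 concentrations. Analysis: linear interpolation between bracketing concentrations; unreached endpoints set to highest concentration. GI50: concentration for 50% inhibition of growth.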 Active and inactive are the calls of the source. Rule as the data show it: active = GI50 up to about 1.1 µM and inactive = higher.
Assays:
Test in all cases: NCI-60 cell line screen, 48 h
SNB-19 = test system: SNB-19
786-0 = test system: 786-0
HL-60 = test system: HL-60
RXF 393 = test system: RXF 393
HT-29 = test system: HT-29
HCT-15 = test system: HCT-15
MDA-MB-231 = test system: MDA-MB-231
OVCAR-4 = test system: OVCAR-4
MCF7 = test system: MCF7
SF-295 = test system: SF-295
A498 = test system: A498
K562 = test system: K562
NCI/ADR-RES = test system: NCI/ADR-RES
MDA-MB-435 = test system: MDA-MB-435
LOX IMVI = test system: LOX IMVI
OVCAR-3 = test system: OVCAR-3
SF-539 = test system: SF-539
CCRF-CEM = test system: CCRF-CEM
EKVX = test system: EKVX
NCI-H460 = test system: NCI-H460

Structure (SMILES) | GI50 (SNB-19) | GI50 (786-0) | GI50 (HL-60) | GI50 (RXF 393) | GI50 (HT-29) | GI50 (HCT-15) [µM] | GI50 (MDA-MB-231) | GI50 (OVCAR-4) | GI50 (MCF7) | GI50 (SF-295) | GI50 (A498) | GI50 (K562) | GI50 (NCI/ADR-RES) | GI50 (MDA-MB-435) | GI50 (LOX IMVI) | GI50 (OVCAR-3) | GI50 (SF-539) | GI50 (CCRF-CEM) | GI50 (EKVX) | GI50 (NCI-H460)
CC(=O)c1cc2c(s1)C(=O)c1ccsc1C2=O | 0.294 µM (active) | 1.92 µM (inactive) | 0.0442 µM (active) | 0.244 µM (active) | 1.85 µM (inactive) | 0.179 | 0.327 µM (active) | 1.26 µM (inactive) | 0.293 µM (active) | 0.16 µM (active) | 7.24 µM (inactive) | 0.407 µM (active) | 0.378 µM (active) | 0.0713 µM (active) | 0.0414 µM (active) | 0.22 µM (active) | 0.27 µM (active) | 0.335 µM (active) | 1.87 µM (inactive) | 
[N-]=[N+]=Nc1cc(=O)[nH]nc1-c1ccccc1 |  | > 100 µM (inactive) | > 100 µM (inactive) | > 100 µM (inactive) | > 100 µM (inactive) | > 100 | > 100 µM (inactive) | > 100 µM (inactive) | > 100 µM (inactive) | > 100 µM (inactive) | > 100 µM (inactive) | > 100 µM (inactive) | > 100 µM (inactive) | > 100 µM (inactive) | > 100 µM (inactive) | > 100 µM (inactive) | > 100 µM (inactive) | > 100 µM (inactive) | > 100 µM (inactive) | > 100 µM (inactive)
C=C1C[C@@H](O)[C@@H](Br)C(C)(C)[C@@]12C=CC(=O)CC2 | > 100 µM (inactive) | > 100 µM (inactive) | > 100 µM (inactive) | > 100 µM (inactive) | > 100 µM (inactive) | > 100 | > 100 µM (inactive) | > 100 µM (inactive) | > 100 µM (inactive) | > 100 µM (inactive) | > 100 µM (inactive) | > 100 µM (inactive) | > 100 µM (inactive) | > 100 µM (inactive) | > 100 µM (inactive) | > 100 µM (inactive) | > 100 µM (inactive) | > 100 µM (inactive) |  | > 100 µM (inactive)
CCOC(=O)c1nc2c(Cl)c3ncccc3cc2[nH]c1=O | 48.1 µM (inactive) | 35.6 µM (inactive) | 14.2 µM (inactive) | 55 µM (inactive) | 38 µM (inactive) | 19 | 18.1 µM (inactive) | 49.1 µM (inactive) | 30.3 µM (inactive) | 22.8 µM (inactive) | 79.6 µM (inactive) | 26.1 µM (inactive) | 30.1 µM (inactive) | 32.1 µM (inactive) |  | 26.2 µM (inactive) | 34.8 µM (inactive) | 17.5 µM (inactive) | 9.08 µM (inactive) | 16.8 µM (inactive)
C=C(C)C1CCC2(C)C1CCC1(C)C2CCC2C3(C)C4OC(OC4=O)C(C)(C)C3CCC21C (centres undefined) | > 100 µM (inactive) | > 100 µM (inactive) | 47.3 µM (inactive) | > 100 µM (inactive) | > 100 µM (inactive) | > 100 | > 100 µM (inactive) |  | > 100 µM (inactive) | > 100 µM (inactive) | > 100 µM (inactive) | 33 µM (inactive) | > 100 µM (inactive) | > 100 µM (inactive) | > 100 µM (inactive) | > 100 µM (inactive) | > 100 µM (inactive) | 80.4 µM (inactive) | > 100 µM (inactive) | > 100 µM (inactive)
COC(=O)c1cccc(C)c1C1CN=NC12Cc1c(ccc(C)c1C)C2=O (centres undefined) | 55 µM (inactive) | 46.2 µM (inactive) | 12.6 µM (inactive) | 19.2 µM (inactive) | 25.8 µM (inactive) | 16.4 | 26.7 µM (inactive) | 56.9 µM (inactive) | 32.5 µM (inactive) |  | 58.1 µM (inactive) | 19 µM (inactive) | 33.1 µM (inactive) | 35.2 µM (inactive) | > 100 µM (inactive) | 42.2 µM (inactive) | > 100 µM (inactive) | 26.1 µM (inactive) | 7.14 µM (inactive) | 47.6 µM (inactive)
CCCCCCCCCCCCCCCCCCN(C)C(COC)COP(=O)([O-])OCC[N+](C)(C)C (centres undefined) | 3.61 µM (inactive) | 1.74 µM (inactive) | 1.48 µM (inactive) | 1.57 µM (inactive) | 2.94 µM (inactive) |  | 5.73 µM (inactive) | 3.69 µM (inactive) | 10.1 µM (inactive) | 2.56 µM (inactive) | 7.38 µM (inactive) | 11.8 µM (inactive) | 24.5 µM (inactive) | 15.6 µM (inactive) | 4.49 µM (inactive) | 7.24 µM (inactive) | 7.01 µM (inactive) | 2.18 µM (inactive) | 17.5 µM (inactive) | 1.78 µM (inactive)
COC(=O)[C@@H](COC(=O)/C=C/c1ccc(OC(C)=O)c(OC(C)=O)c1)NC(=O)/C=C/c1ccc(OC(C)=O)c(OC(C)=O)c1 | 44.5 µM (inactive) | 14.8 µM (inactive) | 18.7 µM (inactive) | 35.1 µM (inactive) | 22.4 µM (inactive) | 19.7 | 22.6 µM (inactive) | 16.4 µM (inactive) | 33.9 µM (inactive) |  | 80.9 µM (inactive) | > 100 µM (inactive) | 51.5 µM (inactive) | 29.5 µM (inactive) | 11.3 µM (inactive) | 20.5 µM (inactive) | 19 µM (inactive) | 9.98 µM (inactive) | 16.3 µM (inactive) | 18.5 µM (inactive)
Cc1cs/c(=N\C(P(=O)(O)O)P(=O)(O)O)n1C | > 100 µM (inactive) | 90.8 µM (inactive) | < 0.01 µM (active) | > 100 µM (inactive) | > 100 µM (inactive) | > 100 | > 100 µM (inactive) |  | > 100 µM (inactive) | > 100 µM (inactive) | > 100 µM (inactive) | > 100 µM (inactive) | > 100 µM (inactive) | > 100 µM (inactive) | > 100 µM (inactive) | > 100 µM (inactive) | > 100 µM (inactive) | > 100 µM (inactive) | > 100 µM (inactive) | > 100 µM (inactive)
COS(C)(=O)=O [METHANESULFONIC ACID METHYL ESTER] | > 2 µM (inactive) | > 2 µM (inactive) | > 2 µM (inactive) | > 2 µM (inactive) | > 2 µM (inactive) | > 2 | > 2 µM (inactive) | > 2 µM (inactive) | > 2 µM (inactive) |  | > 2 µM (inactive) | > 2 µM (inactive) | > 2 µM (inactive) | > 2 µM (inactive) | > 2 µM (inactive) | > 2 µM (inactive) | > 2 µM (inactive) | > 2 µM (inactive) | > 2 µM (inactive) | > 2 µM (inactive)
CC(/C=C/C=C\C=C\C=C(/C)C(=O)NC(C)CO)=C\C(C)C(O)/C(C)=C/C(C)CCc1ccccc1 (centres undefined) | 15.3 µM (inactive) | 13.4 µM (inactive) | 5.02 µM (inactive) | 12.9 µM (inactive) | 11.6 µM (inactive) | 12.8 | 14.6 µM (inactive) | 12.4 µM (inactive) | 1.84 µM (inactive) | 0.0236 µM (active) | 12.6 µM (inactive) | 0.364 µM (active) | 15.6 µM (inactive) | 12.8 µM (inactive) |  | 1.4 µM (inactive) | 14.1 µM (inactive) | 8.85 µM (inactive) | 4.73 µM (inactive) | 3.85 µM (inactive)
